Assay results published in patent US12366579B2, “Sulfur-heterocycle exchange chemistry and uses thereof” (University of Virginia Patent Foundation, priority 2019, dated 2025).

Assays:
[1] = system: HEK293T soluble proteomes; experiment: LC-MS chemical proteomics of probe-modified sites in cell proteomes; assay type: binding, human; conditions: for tyrosine specificity, Y/K ratio of modified sites: LC-MS chemical proteomics, FIG. 4A
Procedure: (§1) Proteomes were diluted to 2.3 mg/mL in PBS and sample aliquots (432 μL) were treated with sulfonyl-triazole or -fluoride probes at the indicated concentrations (5 μL, 100× stock in DMSO), mixed gently and incubated for 1 h at room temperature. Probe-modified proteomes were subjected to CuAAC conjugation to desthiobiotin-PEG3-azide (10 μL of 10 mM stock in DMSO; final concentration of 200 μM) using TCEP (10 μL of fresh 50 mM stock in water; 1 mM final concentration), TBTA ligand (33 μL of a 1.7 mM 4:1 t-butanol/DMSO stock, 100 μM final concentration), and CuSO4 (10 μL of 50 mM stock, 1 mM final concentration). Samples were mixed by vortexing and then incubated for 1 h at room temperature. Excess reagents were removed by chloroform-methanol extraction as previously described^51. Protein pellets were re-suspended in 500 μL of 6M urea/25 mM ammonium bicarbonate followed by DTT reduction and IAA alkylation as previously described^5. Excess reagents were removed by chloroform/methanol extraction as described above, and the protein pellet was re-suspended in 500 μL of 25 mM ammonium bicarbonate and then digested to peptides using trypsin/Lys-C (7.5 μg in 15 μL of ammonium bicarbonate, sequencing grade from Promega, Madison, Wisconsin, United States of America) was added to the mixture and incubated for 3 hrs at 37° C. Probe-modified peptides were enriched by avidin affinity chromatography, eluted, and prepared for LC-MS analysis as previously described^51.
A top 10 data-dependent acquisition MS method was used.
Sulfonyl-probe modifications of tyrosine, lysine, and other amino acids were included as a variable (common) modification of +635.27374 Da. […] A Byonic score of 300 was applied for a more inclusive initial evaluation of the search results and thereby consider more possible probe-modified sites. MS1 and MS2 spectra corresponding to the highest-scoring tyrosine- and lysine (internal or non-C terminal)-modified sequences (˜50-100 peptides) were manually verified. […] Distinct peptides containing probe-modified amino acid residues (termed sites) were determined by identifying all unique razor protein and site combinations across all of the proteomes tested.
To compare amino acid residues modified by sulfonyl probes, protein and peptide identifications were accomplished as described above with variable (common) modification of +635.27374 Da on the following amino acid residues: cysteine, aspartic acid, glutamic acid, histidine, lysine, methionine, asparagine, glutamine, arginine, serine, threonine, tryptophan, and tyrosine. For these amino acid comparisons, carbamidomethylation (+57.021464 Da) of cysteines was searched as a variable/common modification to allow for the potential of probe modification on cysteines. Comparisons of probe-modified sites across all probes and cell lines tested were performed using the R package ggplot2 (online at tidyverse.org). Venn diagrams for comparisons were generated using the VennDiagram R package^52.
Proteomes were digested with trypsin protease and desthiobiotin-modified peptides enriched by avidin affinity chromatography, released, and analyzed by high-resolution liquid chromatography-mass spectrometry (LC-MS). Probe-modified peptide-spectrum matches (PSMs) that met a quality control confidence criteria of ≥300 Byonic score^31 and ≤5 ppm mass accuracy were selected for further manual evaluation.

[2] = system: human cell proteomes (HEK293T, A549, DM93, H82, and Jurkat cells); experiment: LC-MS chemical proteomics of probe-modified tyrosine sites across 5 cell proteomes; assay type: binding; conditions: HHS-465 and -475 together; 100 μM, 1 hr, 25° C.
Procedure: as §1, with “Probe-modified peptides were enriched by avidin affinity chromatography, eluted, and prepared for LC-MS analysis as previously described^51.” left out

[3] = system: HEK293T, Jurkat cells; experiment: Live cell chemical proteomic profiling with SuTEx probes; assay type: cell-based, human; conditions: 100 μM, 2 hr, 37° C.; membrane and soluble fractions; both probes
Procedure: Cells grown to ˜90% confluency in 10 cm plates were treated with DMSO vehicle or sulfonyl-triazole probe (10 μL of 1000×DMSO stock) in serum-free media for the indicated concentrations and times at 37° C. with 5% CO2. After treatment, cells were washed with cold PBS twice before harvesting and preparation for gel-based chemical proteomic evaluation as described above. For LC-MS studies, protein concentrations were normalized to 2.3 mg/mL and 432 μL (for 1 mg final protein amount) were used for sample preparation as detailed below.
Proteomes were diluted to 2.3 mg/mL in PBS and sample aliquots (432 μL) were treated with sulfonyl-triazole or -fluoride probes at the indicated concentrations (5 μL, 100× stock in DMSO), mixed gently and incubated for 1 h at room temperature. Probe-modified proteomes were subjected to CuAAC conjugation to desthiobiotin-PEG3-azide (10 μL of 10 mM stock in DMSO; final concentration of 200 μM) using TCEP (10 μL of fresh 50 mM stock in water; 1 mM final concentration), TBTA ligand (33 μL of a 1.7 mM 4:1 t-butanol/DMSO stock, 100 μM final concentration), and CuSO4 (10 μL of 50 mM stock, 1 mM final concentration). Samples were mixed by vortexing and then incubated for 1 h at room temperature. Excess reagents were removed by chloroform-methanol extraction as previously described^51. […]

[4] = HPLC assay, p-cresol reactivity against a sulfonyl probe mixture; assay type: physicochemical; conditions: TMG 2.2 equivalents, 0° C.
Procedure: The following reagents were prepared and kept at 0° C. prior to use: 0.1 M solution of caffeine in acetonitrile (ACN), 1.0 M solution of n-butylamine, p-cresol, tetramethylguanidine (TMG), acetic acid in ACN, and 10 mM solution of the probes in a mixture of DMF-ACN (v/v=10:90) are made.
(i) p-Cresol reactivity against a probe mixture: A solution of p-cresol (16.5 μmol, 3.3 eq) was premixed with 1.1, 2.2, or 3.3 eq of TMG. To initiate the reaction, the p-cresol/TMG solution was added to a sulfonyl probe mixture of HHS-475/HHS-482/HHS-SF-1 (500 μL, 5 μmol, 1.0 eq each) and the reaction was kept at 0° C. The reaction progress was monitored by taking out a 50.0 μL aliquot of the reaction mixture at various time points followed by addition of a 10 μL quenching solution of acetic acid (0.5 M final, 5.0 μmol) and the internal caffeine standard (0.05 M final, 0.5 μmol). Sample (1.0 μL) was injected and analyzed by reverse-phase HPLC on a Shimadzu 1100 Series spectrometer (Shimadzu, Kyoto, Japan) with UV detection at 254 nm. Reaction progress was evaluated by monitoring consumption of sulfonyl probes because all probes generate a shared p-cresol and n-butylamine product. Chromatographic separation was performed using a Phenomenex Kinetex C18 column (2.6 μm, 50 mm×4.6 mm, Phemonenex, Torrance, California, United States of America). […]

For C#CCNC(=O)c1ccc(S(=O)(=O)n2nccn2)cc1 [HHS-465, 4-((2H-1,2,3-Triazol-2-yl)sulfonyl)-N-(prop-2-yn-1-yl)benzamide], the “tyrosine specificity, Y/K ratio of modified sites” value [1] was 2.5, the “tyrosine sites identified in aggregate across 5 cell proteomes” value [2] was ~8,000 sites and the “distinct tyrosine sites measured in live cell studies, in total per cell line” value [3] was ~3,500 sites.

In the case of C#CCNC(=O)c1ccc(S(=O)(=O)F)cc1 [HHS-SF-1, 4-(Prop-2-yn-1-ylcarbamoyl)benzenesulfonyl fluoride, reference compound], the “time to consumption of probe by p-cresol” value [4] is reported as over 90 min, the “fold reduction in total number of modified sites compared with HHS-465 and HHS-475” value [1] is reported as about 4 fold and the “tyrosine specificity, Y/K ratio of modified sites” value [1] is reported as 2.3.
